Experiment [1] deals with proMMP-9 production by human TNFα stimulated THP-1 cell. Briefly: Action on proMMP-9 production by human TNFα stimulated THP-1 cell (ELISA of culture supernatant). The format is cell-based. To be noted: THP-1 cells, human TNFα 10 ng/mL, 24 hr; IC50 from 3 concentrations (5, 50, 500 or 1, 10, 100 nmol/L); read-out: proMMP-9 suppression rate IC50. How it is done: Experimental Example 1: Action of Human TNFα Stimulated THP-1 Cell on proMMP-9 Production
THP-1 cell (human monocytic leukemia cell line) was adjusted to 1×10^7 cells/mL in a culture medium (10% fetal bovine serum/RPMI1640 medium), and dispensed to a 96 well multiplate. This was equilibrated under the conditions of 37° C./5% CO2, and a culture medium containing human TNFα (final concentration 10 ng/mL) and a test compound was dissolved therein. After incubation under the conditions of 37° C./5% CO2 for 24 hr, the culture medium was centrifuged and the culture supernatant was collected, which was subjected to the following measurement.
Quantification of proMMP-9 in Culture Supernatant
The proMMP-9 concentration of the collected culture supernatant was quantified using a commercially available measurement reagent (manufactured by GE Healthcare, MMP-9, Human, Biotrak ELISA System).
Calculation of proMMP-9 Suppression Rate
The proMMP-9 suppression rate of the test compound was calculated from the following formula: % suppression=100−((Test−Min)/(Max−Min)×100) wherein Max is proMMP-9 concentration of culture supernatant induced by stimulation with human TNFα, without addition of a test compound (added with solvent alone) Min is proMMP-9 concentration of culture supernatant without addition of a test compound (added with solvent alone) and without stimulation with human TNFα, and Test is proMMP-9 concentration of culture supernatant induced by stimulation with human TNFα when a test compound is added.
Furthermore, the concentration of the test compound necessary for suppressing proMMP-9 production by human TNFα stimulated THP-1 cell by 50% (IC50 value) was calculated from 3 points of proMMP-9 suppression rate at test compound concentrations of 5, 50 and 500 nmol/L or 1, 10 and 100 nmol/L.
MMP-9 is produced as a precursor proMMP-9 by the stimulated cells, extracellularly activated and expresses the physiological activity as MMP-9. That is, evaluation of the suppression of proMMP-9 produced by the cell means evaluation of the suppression of production of MMP-9. The same applies to MMP-2, and evaluation of the suppression of proMMP-2 produced by the cell means evaluation of the suppression of production of MMP-2.

Experiment [2] relates to proMMP-2 production by THP-1 cell. Briefly: Action on hemostatic type proMMP-2 production by THP-1 cell (ELISA of culture supernatant). The format is cell-based. To be noted: Homo sapiens; THP-1 cells, no stimulation, 24 hr; IC50 from 0.1, 1 and 10 μmol/L; read-out: IC50 value (μmol/L), proMMP-2 production suppression. How it is done:
Experimental Example 2: Action of THP-1 Cell on Hemostatic Type proMMP-2 Production
THP-1 cell (human monocytic leukemia cell line) was adjusted to 1×10^7 cells/mL in a culture medium (10% fetal bovine serum/RPMI1640 medium), and dispensed to a 96 well multiplate. This was equilibrated under the conditions of 37° C./5% CO2, and a culture medium dissolving a test compound was added thereto. After incubation under the conditions of 37° C./5% CO2 for 24 hr, the culture medium was centrifuged and the culture supernatant was collected, which was subjected to the following measurement.
Quantification of proMMP-2 in Culture Supernatant
The proMMP-2 concentration of the collected culture supernatant was quantified using a commercially available measurement reagent (manufactured by GE Healthcare, MMP-2, Human, Biotrak ELISA System).
Calculation of proMMP-2 Suppression Rate
The proMMP-2 suppression rate of the test compound was calculated from the following formula: % suppress=100−((Test/Cont)×100). wherein Cont is proMMP-2 concentration of culture supernatant without addition of a test compound (added with solvent alone) and Test is proMMP-2 concentration of culture supernatant with addition of a test compound. […]

In experiment [3] the test system is rat monoiodoacetic acid-induced osteoarthritis model. Briefly: Suppressive action on joints injury marker COMP in rat monoiodoacetic acid-induced osteoarthritis model. The format is in vivo. To be noted: for Joints injury marker COMP suppression rate (%): oral. How it is done: Experimental Example 3 Suppressive Action on Articular Joints Injury Marker Free of Rat Monoiodoacetic Acid-Induced Osteoarthritis Model
Monoiodoacetic acid solution (0.3 mg/25 μL) was injected into the right hindpaw knee joint cavity of anesthetized rats (LEW, male, 7-week-old). […] On day 5, cold phosphate buffer (20 μL) was injected into the right hindpaw knee joint cavity of the euthanized rats, and the joint cavity washing was collected. The joints injury marker COMP (Cartilage Oligomeric Matrix Protein) concentration of the joint cavity washing was quantified using a commercially available measurement reagent (Animal COMP ELISA Kit manufactured by Anamer Medical).
Calculation of Joints Injury Marker COMP Suppression Rate
The COMP suppression rate of the test compound was calculated from the following formula: % suppression=100−((Test−Min)/(Max−Min)×100) wherein Max is a COMP concentration of the joint cavity washing of the pathology group administered with a monoiodoacetic acid solution (oral administration of solvent alone), Min is a COMP concentration of the joint cavity washing of the non-treatment normal group (oral administration of solvent alone), and Test is a COMP concentration of the joint cavity washing of the test compound administration group.

The subject of experiment [4] is mouse dextran sulfuric acid induced colitis model. The experiment in a line: Suppressive action on enteritis score (Disease Activity Index, DAI) of mouse dextran sulfuric acid induced colitis model. The format is in vivo. To be noted: mouse (C57BL/6J), oral, 30 mg/kg twice per day until day 10; AUC of DAI on days 3, 5, 7 and 10; pathology group 11.75 ± 1.18. How it is done:
Experimental Example 4 Suppressive Action on Enteritis Score (Disease Activity Index, DAI) of Mouse Dextran Sulfuric Acid Induced Colitis Model
Mice (C57BL/6J, male, 6-week-old) were allowed to freely ingest 2.0% (w/v) dextran sulfuric acid solution for 5 days, the solution was exchanged with water, and pathology was evaluated on day 10. The test compound was orally administered twice per day at a dose of 30 mg/kg for 5 days of dextran sulfuric acid solution ingestion and thereafter until day 10. On days 3, 5, 7 and 10 from the start of the test, the body weight decrease, stool consistency, and the state of occult blood or gross bleeding were respectively scored in 0-4 points, and the mean of the total score was taken as Disease Activity Index (DAI), an index of enteritis pathology. The diagnostic criteria of the stool consistency score and occult blood or gross bleeding score were as follows.
The evaluation results are shown by the area under the curve (AUC) calculated using DAI on days 3, 5, 7 and 10.

In the case of `Cc1cnc(N2CCN(C(=O)c3ccc([C@@]4(C)NC(=O)NC4=O)cc3)CC2)c(C)c1` [Example 1, (R)-5-{4-[4-(3,5-dimethylpyridin-2-yl)piperazine-1-carbonyl]phenyl}-5-methylimidazolidine-2,4-dione], the IC50 in experiment [1] was 27 nM; in experiment [2], greater than 10 µmol/L. Besides, in experiment [3] (rat (LEW), 1 mg/kg once per day, joint cavity washing on day 5), the “Joints injury marker COMP suppression rate (%)” value was 80.9%. Further, the “superiority in joints injury marker COMP suppression rate compared with Example 450 described in patent document 3” value in experiment [3] (rat monoiodoacetic acid model, both at 1 mg/kg once per day) was “at least 5 fold”. In addition, the “DAI (AUC)” value in experiment [4] is 9.78 ± 0.80.

Turning to `Cc1cnc(N2CCN(C(=O)c3ccc([C@@]4(C(C)C)NC(=O)NC4=O)cc3)CC2)c(C)c1` [Example 8, (R)-5-{4-[4-(3,5-dimethylpyridin-2-yl)piperazine-1-carbonyl]phenyl}-5-isopropylimidazolidine-2,4-dione], the “Joints injury marker COMP suppression rate (%)” value in experiment [3] (rat (LEW), 0.1 mg/kg once per day, joint cavity washing on day 5) is 84.3%. Also, the “superiority in joints injury marker COMP suppression rate compared with Example 571 described in patent document 3” value in experiment [3] (rat monoiodoacetic acid model, 0.1 mg/kg versus 3 mg/kg once per day) is recorded as “at least 30 fold”.

As for `CC(C)[C@]1(c2ccc(C(=O)N3CCC(c4nnc(-c5ccccc5)s4)CC3)cc2)NC(=O)NC1=O` [Example 227, (R)-5-isopropyl-5-{4-[4-(5-phenyl[1,3,4]thiadiazol-2-yl)piperidine-1-carbonyl]phenyl}imidazolidine-2,4-dione], the IC50 in experiment [1] was found to be 84 nM.

For `CC(C)[C@]1(c2ccc(C(=O)N3CCN(c4nc5ccccc5n4C)CC3)cc2)NC(=O)NC1=O` [Example 243, (R)-5-isopropyl-5-{4-[4-(l-methyl-1H-benzimidazol-2-yl)piperazine-1-carbonyl]phenyl}imidazolidine-2,4-dione], in experiment [1], the IC50 was 27 nM.

As for `CC(C)[C@]1(c2ccc(C(=O)N3CCC(c4ncc(-c5ccccc5)s4)CC3)cc2)NC(=O)NC1=O` [Example 259, (R)-5-isopropyl-5-{4-[4-(5-phenylthiazol-2-yl)piperidine-1-carbonyl]phenyl}imidazolidine-2,4-dione], the IC50 in experiment [1] stood at 60 nM.

Regarding `CC(C)[C@]1(c2ccc(C(=O)N3CCC(c4nc5cc(C(F)(F)F)ccc5s4)CC3)cc2)NC(=O)NC1=O` [Example 262, (R)-5-isopropyl-5-{4-[4-(5-trifluoromethylbenzothiazol-2-yl)piperidine-1-carbonyl]phenyl}imidazolidine-2,4-dione], the IC50 in experiment [1] was found to be 13 nM.

With `Cc1ccc2nc(C3CCN(C(=O)c4ccc([C@@]5(C)NC(=O)NC5=O)cc4)CC3)oc2c1` [Example 267, (R)-5-methyl-5-{4-[4-(6-methylbenzoxazol-2-yl)piperidine-1-carbonyl]phenyl}imidazolidine-2,4-dione], the IC50 in experiment [1] was found to be 5 nM.

On to `Cc1cc(C)c2c(cnn2C2CCN(C(=O)c3ccc([C@@]4(C(C)C)NC(=O)NC4=O)cc3)CC2)c1` [Example 272, (R)-5-{4-[4-(5,7-dimethylindazol-1-yl)piperidine-1-carbonyl]phenyl}-5-isopropylimidazolidine-2,4-dione], for which the IC50 in experiment [1] is less than 5 nM.

As to `Cc1cc(F)c2c(C3CCN(C(=O)c4ccc([C@@]5(C)NC(=O)NC5=O)cc4)CC3)n[nH]c2c1` [Example 280, (R)-5-{4-[4-(4-fluoro-6-methyl-1H-indazol-3-yl)piperidine-1-carbonyl]phenyl}-5-methylimidazolidine-2,4-dione], the IC50 in experiment [1] is less than 5 nM.

On to `Cc1cc(C2CC2)cnc1N1CCN(C(=O)c2ccc(C3(C4CCC4)NC(=O)NC3=O)cc2)CC1` (stereo not shown) [Example 322, 5-cyclobutyl-5-{4-[4-(5-cyclopropyl-3-methylpyridin-2-yl)piperazine-1-carbonyl]phenyl}imidazolidine-2,4-dione], for which the IC50 in experiment [1] is less than 1 nM.

Turning to `Cc1cnc(N2CCN(C(=O)c3ccc(C4(C(C)(C)C)NC(=O)NC4=O)cn3)CC2)c(C)c1` (stereo not shown) [Example 335, 5-tert-butyl-5-{6-[4-(3,5-dimethylpyridin-2-yl)piperazine-1-carbonyl]pyridin-3-yl}imidazolidine-2,4-dione], the IC50 in experiment [1] came to 1 nM.

With `COCC1(c2ccc(C(=O)N3CCC(c4coc5cc(C)cc(C)c45)CC3)cn2)CC(=O)NC1=O` (stereo not shown) [Example 343, 3-{5-[4-(4,6-dimethyl-benzofuran-3-yl)piperidine-1-carbonyl]pyridin-2-yl}-3-methoxymethyl-pyrrolidine-2,5-dione], in experiment [1], the IC50 was less than 3 nM.

On to `Cc1ccc2c(C3CCN(C(=O)c4ccc([C@@]5(C)NC(=O)NC5=O)cc4)CC3)c[nH]c2c1` [Example 345, (R)-5-methyl-5-{4-[4-(6-methyl-1H-indol-3-yl)piperidine-1-carbonyl]phenyl}imidazolidine-2,4-dione], for which the IC50 in experiment [1] was 15 nM.

`Cc1ccc(-c2cnn(C3CCN(C(=O)c4ccc([C@@]5(C)NC(=O)NC5=O)cc4)CC3)c2)cc1` [Example 346, (R)-5-methyl-5-{4-[4-(4-p-toluylpyrazol-1-yl)piperidine-1-carbonyl]phenyl}imidazolidine-2,4-dione]: the IC50 in experiment [1] worked out at 88 nM.

On to `CC(=O)OCN1C(=O)N[C@](C)(c2ccc(C(=O)N3CCC(n4cc5cc(C)cc(C)c5n4)CC3)cc2)C1=O` [Example 350, acetic acid (R)-4-{4-[4-(5,7-dimethylindazol-2-yl)piperidine-1-carbonyl]phenyl]-4-methyl-2,5-dioxoimidazolidin-1-ylmethyl ester], for which the IC50 in experiment [1] was determined as 115 nM.

With `Cc1cnc(N2CCN(C(=O)c3ccc(N4C(=O)NC(=O)C4C)cc3)CC2)c(C)c1` (stereo not shown) [Example 450, reference compound], the “Joints injury marker COMP suppression rate (%)” value in experiment [3] (comparison compound of patent document 3 (WO 2011/136292), rat, 1 mg/kg once per day) is on record as 14.4%.

Regarding `Cc1cnc(N2CCN(C(=O)c3ccc(N4C(=O)NC(=O)C4C(C)C)cc3)CC2)c(C)c1` (stereo not shown) [Example 571, reference compound], the “Joints injury marker COMP suppression rate (%)” value in experiment [3] (comparison compound of patent document 3 (WO 2011/136292), rat, 3 mg/kg once per day) is 55.3%.

Source of the values: US10407408B2, “Imide derivatives and use thereof as medicine” (MITSUBISHI TANABE PHARMA CORPORATION, priority 2015, dated 2019).
